Data taken from patent US4820695A, “C-20-dihydro-deoxy-(cyclic amino)-derivatives of macrolide antibiotics” (priority 1987, dated 1989).
In brackets after ≈: the same amount, converted by molar mass. Like-named read-outs stand apart in the source and are kept apart here.

Columns and labels:
Escherichia coli EC14 = assay: MIC, standard agar-dilution assay (Table IX); format: cell-based; details: read-out: MIC
[1] = system: Staphylococcus aureus V41; assay: MIC, standard agar-dilution assay (Table IX); format: cell-based; details: Staphylococcus aureus V41, Penicillin-resistant strain, read-out: MIC
Escherichia coli TEM = assay: MIC, standard agar-dilution assay (Table IX); format: cell-based; details: read-out: MIC
[2] = system: Haemophilus influenzae 76; assay: MIC, standard agar-dilution assay (Table IX); format: cell-based; details: Haemophilus influenzae 76, Ampicillin-resistant strain, read-out: MIC
[3] = system: Streptococcus pyogenes C203; assay: MIC, standard agar-dilution assay (Table IX); format: cell-based; details: read-out: MIC
Staphyloccus aureus X1.1 = assay: MIC, standard agar-dilution assay (Table IX); format: cell-based, Staphylococcus aureus; details: Staphylococcus aureus, read-out: MIC
[4] = system: Staphylococcus epidermidis 222; assay: MIC, standard agar-dilution assay (Table IX); format: cell-based; details: read-out: MIC
Escherichia coli N10 = assay: MIC, standard agar-dilution assay (Table IX); format: cell-based; details: read-out: MIC
[5] = system: Streptococcus Group D 2041; assay: MIC, standard agar-dilution assay (Table IX); format: cell-based; details: GROUPD2041, read-out: MIC
[6] = system: Staphylococcus epidermidis EPI1; assay: MIC, standard agar-dilution assay (Table IX); format: cell-based; details: Staphylococcus epidermidis EPI1; agar-dilution; read-out: MIC
[7] = system: Streptococcus pyogenes C203; assay: ED50 in mice experimentally infected with S. pyogenes C203 (Table XI); format: in vivo; details: Streptococcus pyogenes, doses given 1 and 4 hours postinfection, read-out: ED50
Description: The C-20 modified derivatives of this invention have shown in vivo antimicrobial activity against experimentally-induced infections in laboratory animals. When two doses of test compound were administered to mice experimentally infected with S. pyogenes C203, the activity observed was measured as an ED50 value [effective dose in mg/kg to protect 50% of the test animals: see Warren Wick, et al., J. Bacteriol. 81, 233-235 (1961)].
^a mg/kg × 2; doses given 1 and 4 hours postinfection

Staphylococcus aureus = assay: MIC, broth-dilution microtiter test (Table X); format: cell-based; details: read-out: MIC
From the text: (§1) The MIC's in Table X were obtained using conventional broth-dilution microtiter tests.

[8] = system: Pasteurella hemolytica 22C; assay: MIC, broth-dilution microtiter test (Table X); format: cell-based; details: read-out: MIC
From the text: as §1

Streptococcus sp. 19F = assay: MIC, broth-dilution microtiter test (Table X); format: cell-based; details: read-out: MIC
From the text: as §1

[9] = system: Mycoplasma gallisepticum 29C; assay: MIC, broth-dilution microtiter test (Table X); format: cell-based; details: Mycoplasmoides gallisepticum, read-out: MIC
From the text: as §1

[10] = system: Pasteurella multocida 17E; assay: MIC, broth-dilution microtiter test (Table X); format: cell-based; details: Bovine isolate, read-out: MIC
From the text: as §1

[11] = system: Pasteurella multocida 60A; assay: MIC, broth-dilution microtiter test (Table X); format: cell-based; details: Avian isolate, read-out: MIC
From the text: as §1

[12] = system: Mycoplasma hyopneumoniae S5972; assay: MIC, broth-dilution microtiter test (Table X); format: cell-based; details: Mesomycoplasma hyopneumoniae, read-out: MIC
From the text: as §1

Mycoplasma synoviae 40A = assay: MIC, broth-dilution microtiter test (Table X); format: cell-based; details: Mycoplasmopsis synoviae, read-out: MIC
From the text: as §1

Mycoplasma hyorhinis 29E = assay: MIC, broth-dilution microtiter test (Table X); format: cell-based; details: read-out: MIC
From the text: as §1

[13] = system: Staphylococcus aureus X400; assay: MIC, standard agar-dilution assay (Table IX); format: cell-based; details: Staphylococcus aureus X400, Methicillin-resistant strain, read-out: MIC
Klebsiella X26 = assay: MIC, standard agar-dilution assay (Table IX); format: cell-based; details: read-out: MIC
[14] = system: Staphylococcus aureus S13E; assay: MIC, standard agar-dilution assay (Table IX); format: cell-based; details: Staphylococcus aureus, S13E
[15] = system: Streptococcus Group D X66; assay: MIC, standard agar-dilution assay (Table IX); format: cell-based; details: read-out: MIC
[16] = system: Streptococcus pneumoniae Park I; assay: MIC, standard agar-dilution assay (Table IX); format: cell-based; details: Streptococcus pneumoniae Park I; agar-dilution; read-out: MIC
Pasteurella multocida [17] = assay: Pasteurella infection in one-day-old chicks, medicated drinking water (Table XIII); format: in vivo; details: Administered in the available drinking water at 2 g/gal
Description: (§2) Many of the C-20 modified derivatives of this invention have also shown in vivo antibacterial activity against infections induced by gram-negative bacteria. Tables XII and XIII summarize the results of tests in which illustrative compounds were evaluated against a Pasteurella infection in one-day-old chicks. The compounds were administered parenterally or orally after challenge of the chicks with Pasteurella multocida (0.1 ml of a 10^-4 dilution of a twenty-hour tryptose broth culture of an avian P. multocida given subcutaneously). In these tests, unless indicated otherwise, all non-medicated infected chicks died within 24 hours of Pasteurella challenge. In the tests summarized in Table XII, the compounds were administered by subcutaneous injection at a dosage of 30 mg/kg, 1 and 4 hours post-challenge of the chicks with P. multocida. In the tests summarized in Table XIII the compounds were administered in medicated drinking water (at a level of 2 g/gal) available from 4 to 20 hours prior to challenge of the chicks with P. multocida and during the 3 -day test period.
^a Administered in the available drinking water at a concentration of […]

Pasteurella multocida [18] = assay: Pasteurella infection in one-day-old chicks, subcutaneous administration (Table XII); format: in vivo; details: Administered subcutaneously, 30 mg/kg × 2, 1 and 4 hours post-challenge
Description: as §2
^a Administered subcutaneously; 30 mg/kg × 2

[19] = system: Haemophilus influenzae C.L.; assay: MIC, standard agar-dilution assay (Table IX); format: cell-based; details: Ampicillin-sensitive strain, read-out: MIC

Structure (SMILES)	MIC (Escherichia coli EC14) [mg/L]	MIC [1] [mg/L]	MIC (Escherichia coli TEM) [mg/L]	MIC [2] [mg/L]	MIC [3] [mg/L]	MIC (Staphyloccus aureus X1.1) [mg/L]	MIC [4] [mg/L]	MIC (Escherichia coli N10) [mg/L]	MIC [5] [mg/L]	MIC [6] [mg/L]	ED50 ([7]; C203, Oral) [mg/kg]	ED50 ([7]; C203, sc, Subcutaneous) [mg/kg]	MIC (Staphylococcus aureus) [mg/L]	MIC [8] [mg/L]	MIC (Streptococcus sp. 19F) [mg/L]	MIC [9] [mg/L]	MIC [10] [mg/L]	MIC [11] [mg/L]	MIC [12] [mg/L]	MIC (Mycoplasma synoviae 40A) [mg/L]	other results
CCC1OC(=O)CC(O)C(C)C(OC2OC(C)C(O)C(N(C)C)C2O)C(CCN2CCCc3ccccc32)CC(C)C(=O)C=CC(C)=CC1COC1OC(C)C(O)C(OC)C1OC (stereo not shown) [Compound D11, 20-DH-DO-20-(1,2,3,4-Tetrahydroquinolin-1-yl)desmycosin]	> 128	0.5 (≈ 0.562 µM)	> 128	8 (≈ 9 µM)	0.5 (≈ 0.562 µM)	0.5 (≈ 0.562 µM)	0.25 (≈ 0.281 µM)	> 128	8 (≈ 9 µM)	0.5 (≈ 0.562 µM)	19	7.5	1.56 (≈ 1.75 µM)	25 (≈ 28.1 µM)	3.12 (≈ 3.51 µM)	≤ 0.048	12.5 (≈ 14.1 µM)	50 (≈ 56.2 µM)	1.56 (≈ 1.75 µM)	0.78 (≈ 0.877 µM)	MIC (Mycoplasma hyorhinis 29E): 6.25 mg/L (≈ 7.03 µM); MIC [13]: 0.5 mg/L (≈ 0.562 µM); MIC (Klebsiella X26): > 128 mg/L; MIC [14]: 0.5 mg/L (≈ 0.562 µM); MIC [15]: 8 mg/L (≈ 9 µM); MIC [16]: 2 mg/L (≈ 2.25 µM); Number of Deaths/Number Treated (Pasteurella multocida [17]): 8/10; Number of Deaths/Number Treated (Pasteurella multocida [18]): 10/10; MIC [19]: 64 mg/L (≈ 72 µM)
CCC1OC(=O)CC(O)C(C)C(OC2OC(C)C(O)C(N(C)C)C2O)C(CCN2CCc3ccccc3C2)CC(C)C(=O)C=CC(C)=CC1COC1OC(C)C(O)C(OC)C1OC (stereo not shown) [Compound D12, 20-DH-DO-20-(1,2,3,4-Tetrahydroisoquinolin-2-yl)desmycosin]	128 (≈ 144 µM)	0.5 (≈ 0.562 µM)	64 (≈ 72 µM)	8 (≈ 9 µM)	0.5 (≈ 0.562 µM)	0.5 (≈ 0.562 µM)	0.25 (≈ 0.281 µM)	> 128	8 (≈ 9 µM)	0.5 (≈ 0.562 µM)	< 6.3	2	1.56 (≈ 1.75 µM)	3.12 (≈ 3.51 µM)	3.12 (≈ 3.51 µM)	≤ 0.048	6.25 (≈ 7.03 µM)	12.5 (≈ 14.1 µM)	3.12 (≈ 3.51 µM)	0.39 (≈ 0.439 µM)	MIC (Mycoplasma hyorhinis 29E): 12.5 mg/L (≈ 14.1 µM); MIC [13]: 0.5 mg/L (≈ 0.562 µM); MIC (Klebsiella X26): 32 mg/L (≈ 36 µM); MIC [14]: 0.5 mg/L (≈ 0.562 µM); MIC [15]: 4 mg/L (≈ 4.5 µM); MIC [16]: 1 mg/L (≈ 1.12 µM); Number of Deaths/Number Treated (Pasteurella multocida [17]): 8/10; Number of Deaths/Number Treated (Pasteurella multocida [18]): 9/10; MIC [19]: 16 mg/L (≈ 18 µM)
